Data reported in patent US20100298141A1, “SUBSTITUTED PYRIDINE N-OXIDE HERBICIDES” (E. I. DU PONT DE NEMOURS AND COMPANY, priority 2007, published 2010).

Tests used:
pigweed = experiment: Test C pre-/postemergence test; format: in vivo, Amaranthus retroflexus
Summary of the method: (§1)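 Seeds were planted and treated preemergence with test chemical in a non-phytotoxic solvent mixture containing surfactant. Postemergence applications of the same formulation went onto plants 2 to 18 cm tall (1- to 4-leaf stage). A dash marks no test result.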

morningglory = experiment: Test C pre-/postemergence test; format: in vivo, Ipomoea coccinea
Summary of the method: as §1

bermudagrass = experiment: Test C pre-/postemergence test; format: in vivo, Cynodon dactylon
Summary of the method: as §1

wheat = experiment: Test A pre-/postemergence greenhouse test; format: in vivo, Triticum aestivum; settings: for Plant response rating, Wheat: 0 to 100 scale where 0 is no effect and 100 is complete control; for Wheat plant response rating: 0 to 100 scale
Summary of the method: (§2)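 Test compounds in non-phytotoxic solvent with surfactant were applied as a preemergence soil spray to seeded loam/sand pots and, concurrently, postemergence to plants at 2–10 cm, one- to two-leaf stage. About ten days in greenhouse, then injury visually rated against untreated controls.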

Surinam grass = experiment: Test C pre-/postemergence test; format: in vivo, Brachiaria decumbens
Summary of the method: as §1

barnyardgrass = experiment: Test C flooded paddy test; format: in vivo, Echinochloa crus-galli; settings: Flood
Summary of the method: (§3)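 In-water treatment: compound dosed into 3 cm flood over soil, water level unchanged throughout. Controls run alongside; visual assessment at day 13–15.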

lambsquarters = experiment: Test C pre-/postemergence test; format: in vivo, Chenopodium album
Summary of the method: as §1

velvetleaf = experiment: Test A pre-/postemergence greenhouse test; format: in vivo, Abutilon theophrasti; settings: for Plant response rating, Velvetleaf: 0 to 100 scale where 0 is no effect and 100 is complete control; for Velvetleaf plant response rating: 0 to 100 scale
Summary of the method: as §2

johnsongrass = experiment: Test C pre-/postemergence test; format: in vivo, Sorghum halepense
Summary of the method: as §1

corn = experiment: Test A pre-/postemergence greenhouse test; format: in vivo, Zea mays; settings: for Plant response rating, Corn: 0 to 100 scale where 0 is no effect and 100 is complete control; for Corn plant response rating: 0 to 100 scale
Summary of the method: as §2

giant foxtail [1] = experiment: Test C pre-/postemergence test; format: in vivo, Setaria faberii
Summary of the method: as §1

rice = experiment: Test C flooded paddy test; format: in vivo, Oryza sativa; settings: Flood
Summary of the method: as §3

giant foxtail [2] = experiment: Test A pre-/postemergence greenhouse test; format: in vivo, Setaria faberi; settings: for Plant response rating, Foxtail, Giant: 0 to 100 scale where 0 is no effect and 100 is complete control; for Foxtail, Giant plant response rating: 0 to 100 scale
Summary of the method: as §2

soybean = experiment: Test C pre-/postemergence test; format: in vivo, Glycine max
Summary of the method: as §1

crabgrass = experiment: Test C pre-/postemergence test; format: in vivo, Digitaria sanguinalis
Summary of the method: as §1

downy brome = experiment: Test C pre-/postemergence test; format: in vivo, Bromus tectorum
Summary of the method: as §1

[3] = 62 g ai/ha, Preemergence, scale 0 to 100
[4] = 125 g ai/ha, preemergence, scale 0 (no effect) to 100 (complete control)
[5] = Preemergence, 31 g ai/ha, scale 0 to 100 (0 no effect, 100 complete control)
[6] = preemergence, 250 g ai/ha, scale 0 (no effect) to 100 (complete control)
[7] = Postemergence, 500 g ai/ha, 0 is no effect, 100 is complete control
[8] = Preemergence, 125 g ai/ha, 0 no effect, 100 complete control
[9] = 62 g ai/ha, scale 0 to 100 (0 no effect, 100 complete control)
[10] = 250 g ai/ha, scale 0 to 100, 0 no effect, 100 complete control, 13 to 15 days

`Cn1nc(C(F)(F)F)c(CS(=O)(=O)c2cccc[n+]2[O-])c1OCC(F)F` [Compound 81] was tested, and the “Pigweed plant response rating” value (pigweed; [3]) was 98, the “Pigweed plant response rating” value (pigweed; [4]) was 100 and the “Plant response rating, Pigweed” value (pigweed; [5]) was 0. For the same compound, the “Pigweed plant response rating” value (pigweed; [6]) was 100, the “Morningglory plant response rating” value (morningglory; [3]) was 0 and the “Morningglory plant response rating” value (morningglory; [4]) was 85. The “Plant response rating, Morningglory” value (morningglory; [5]) was 0, the “Morningglory plant response rating” value (morningglory; [6]) was 85 and the “Bermudagrass plant response rating” value (bermudagrass; 62 g ai/ha, Preemergence, scale 0 to 100 (0 no effect, 100 complete control)) was 100. For the same compound, the “Bermudagrass plant response rating” value (bermudagrass; [4]) was 100, the “Plant response rating, Bermudagrass” value (bermudagrass; [5]) was 80 and the “Bermudagrass plant response rating” value (bermudagrass; [6]) was 100. The “Plant response rating, Wheat” value (wheat; Postemergence, 125 g ai/ha) was 20, the “Wheat plant response rating” value (wheat; [7]) was 60 and the “Wheat plant response rating” value (wheat; [8]) was 10. The “Plant response rating, Wheat” value (wheat; Preemergence, 500 g ai/ha) was 80, the “Surinam Grass plant response rating” value (Surinam grass; [3]) was 80 and the “Surinam Grass plant response rating” value (Surinam grass; [4]) was 100. For the same compound, the “Plant response rating, Surinam Grass” value (Surinam grass; [5]) was 70, the “Surinam Grass plant response rating” value (Surinam grass; [6]) was 100 and the “Plant response rating, Barnyardgrass” value (barnyardgrass; [9]) was 0. The “Plant response rating, Barnyardgrass” value (barnyardgrass; [10]) was 0, the “Lambsquarters plant response rating” value (lambsquarters; [3]) was 100 and the “Lambsquarters plant response rating” value (lambsquarters; [4]) was 100. The “Plant response rating, Lambsquarters” value (lambsquarters; [5]) was 80, the “Lambsquarters plant response rating” value (lambsquarters; [6]) was 100 and the “Plant response rating, Velvetleaf” value (velvetleaf; Postemergence, 125 g ai/ha) was 10. The “Velvetleaf plant response rating” value (velvetleaf; [7]) was 70, the “Velvetleaf plant response rating” value (velvetleaf; [8]) was 10 and the “Plant response rating, Velvetleaf” value (velvetleaf; Preemergence, 500 g ai/ha) was 100. For the same compound, the “Johnsongrass plant response rating” value (johnsongrass; [3]) was 95, the “Johnsongrass plant response rating” value (johnsongrass; [4]) was 100 and the “Plant response rating, Johnsongrass” value (johnsongrass; [5]) was 95. The “Johnsongrass plant response rating” value (johnsongrass; [6]) was 100, the “Plant response rating, Corn” value (corn; Postemergence, 125 g ai/ha) was 0 and the “Corn plant response rating” value (corn; [7]) was 50. The “Corn plant response rating” value (corn; [8]) was 30, the “Plant response rating, Corn” value (corn; Preemergence, 500 g ai/ha) was 70 and the “Foxtail, Giant plant response rating” value (giant foxtail [1]; [3]) was 98. The “Foxtail, Giant plant response rating” value (giant foxtail [1]; [4]) was 100, the “Plant response rating, Foxtail, Giant” value (giant foxtail [1]; [5]) was 80 and the “Foxtail, Giant plant response rating” value (giant foxtail [1]; [6]) was 100. The “Plant response rating, Rice” value (rice; [9]) was 0, the “Plant response rating, Rice” value (rice; [10]) was 0 and the “Plant response rating, Foxtail, Giant” value (giant foxtail [2]; Postemergence, 125 g ai/ha) was 80. The “Foxtail, Giant plant response rating” value (giant foxtail [2]; [7]) was 80, the “Foxtail, Giant plant response rating” value (giant foxtail [2]; [8]) was 90 and the “Plant response rating, Foxtail, Giant” value (giant foxtail [2]; Preemergence, 500 g ai/ha) was 100. For the same compound, the “Soybean plant response rating” value (soybean; [3]) was 0, the “Soybean plant response rating” value (soybean; [4]) was 100 and the “Plant response rating, Soybean” value (soybean; [5]) was 0. The “Soybean plant response rating” value (soybean; [6]) was 100, the “Crabgrass, Large plant response rating” value (crabgrass; [3]) was 80 and the “Crabgrass, Large plant response rating” value (crabgrass; [4]) was 98. For the same compound, the “Plant response rating, Crabgrass, Large” value (crabgrass; [5]) was 60, the “Crabgrass, Large plant response rating” value (crabgrass; [6]) was 98 and the “Bromegrass, Downy plant response rating” value (downy brome; [3]) was 40. For the same compound, the “Bromegrass, Downy plant response rating” value (downy brome; [4]) was 100, the “Plant response rating, Bromegrass, Downy” value (downy brome; [5]) was 40 and the “Bromegrass, Downy plant response rating” value (downy brome; [6]) was 100.
